Data on 1 substance can be found in patent US20250320249A1, “PEPTIDE HAVING ACTIVITY OF IMPROVING STATE OF SKIN, AND USE THEREOF” (CAREGEN CO., LTD., priority 2021, published 2025).

Assay [1] relates to HaCaT cells. Put plainly: Survival rate of skin cells after apoptosis induced by ultraviolet irradiation (SRB). The format is cell-based, human. The following applies: 15 m J/cm^2 ultraviolet rays, 50 μM or 100 μM peptide, 72 hours, FIG. 6B. On the procedure: (§1) In this example, the aim was to confirm the effect of the peptide according to an example on the inhibition of apoptosis or cell recovery of skin cells induced by ultraviolet rays, by evaluating the change in survival rate of skin cells whose apoptosis was induced by ultraviolet irradiation.
(§2) Specifically, NIH3T3 cells or HaCaT cells were seeded in a 96-well plate at a density of 1×10^4 cells/well and cultured for 24 hours. The cells were then washed once with serum-free DMEM media, the culture medium was replaced with serum-free DMEM media, and 50 μM or 100 μM of the peptide consisting of the amino acid sequence of SEQ ID NO: 1 was dispensed to the culture medium. The culture medium dispensed with the peptide was cultured in a CO2 incubator at 37° C. for 1 hour, transferred to an e-tube, mixed with 100 μl of PBS, and dispensed into a well plate. Afterwards, using a UV irradiator (VILBER LOURMAT, France), 6 J/cm^2 ultraviolet rays were irradiated to NIH3T3 cells, and 15 m J/cm^2 ultraviolet rays were irradiated to HaCaT cells. The PBS in the well plate was then removed, 900 μL of the culture medium in which the peptides were dispensed was added, and the plate was cultured in a CO2 incubator at 37° C. for 72 hours. […] The dried culture was then dissolved in 20 mM Tris buffer solution and the absorbance at 560 nm was measured using a microplate reader (Molecular Devices, USA). […]

Assay [2] deals with NIH3T3 cells. Put plainly: Proliferation of skin cells (SRB staining, survival rate). The format is cell-based, mouse. The following applies: 50 μM or 100 μM peptide, 72 hours, serum-free DMEM, FIG. 1A. On the procedure: (§3) In this example, the aim was to confirm the effect of a peptide according to an example on proliferation of skin cells, by evaluating changes in survival rate of NIH3T3 cells, which are mouse fibroblasts, or HaCaT cells, which are human keratinocytes.
(§4) Specifically, NIH3T3 cells or HaCaT cells were seeded in a 96-well plate at a density of 5×10^3 cells/well and cultured for 24 hours. The cells were then washed once with serum-free DMEM media, and the culture medium was replaced with serum-free DMEM media. Then, 50 μM or 100 μM of the peptide consisting of the amino acid sequence of SEQ ID NO: 1 was dispensed into the medium, and cultured in a CO2 incubator at 37° C. for 72 hours. The culture was then washed twice with PBS and treated with 4% paraformaldehyde (PFA) solution for 15 minutes to fix the cultured cells. The culture was then washed twice with distilled water, treated with SRB solution for 1 hour to stain the cells, washed with 1% acetic acid solution, and dried. The dried culture was then dissolved in 20 mM Tris buffer solution and the absorbance at 560 nm was measured using a microplate reader (Molecular Devices, USA). In this example, the untreated group was used as the control group, and the group to which insulin-like growth factor was added (IGF) was used as the positive control group.

Assay [3] concerns sirtuin-1 (SIRT-1). The assay is described as follows: Expression of skin barrier factor in HaCaT cells (RT-PCR). The following applies: 50 μM or 100 μM peptide, 24 hours, FIG. 4, FIG. 5A. It is filed as cell-based, human. The protocol: (§5) In this example, the aim was to confirm the effect of the peptides according to an example on skin barrier defense, by evaluating the expression levels of sirtuin-1 (SIRT-1) or aquaporin-3 (AQP3).
(§6) Specifically, HaCaT cells were seeded in a 6-well plate at a density of 3×10^5 cells/well and cultured for 24 hours. The cells were then washed once with serum-free DMEM media, and the culture medium was replaced with serum-free DMEM media. Thereafter, 50 μM or 100 μM of the peptide consisting of the amino acid sequence of SEQ ID NO: 1 was dispensed into the medium, and cultured in a CO2 incubator at 37° C. for 24 hours. The culture was then washed twice with PBS, and RNA was isolated from the culture using easy blue (iNtRON, Korea). Using the RT kit (Enzynomics, Korea), 1 μg of the isolated RNA was reverse transcribed to synthesize the respective cDNA. Polymerase chain reaction was then performed using the cDNAs and primers sirtuin-1 and aquaporin-3. Meanwhile, the untreated group was used as the control group, and the group to which EGF was added (EGF) was used as the positive control group, the nucleotide sequences of the primers used in this example are shown in Table 3 below.

In assay [4] the test system is aquaporin-3 (AQP3). The description is as above. Conditions: 50 μM or 100 μM peptide, 24 hours, FIG. 4, FIG. 5B. The format is cell-based, human. On the procedure:
as §5, §6

Assay [5] deals with fibronectin. Put plainly: Expression of extracellular matrix constituent factor in NIH3T3 cells (RT-PCR). The format is cell-based, mouse. Conditions: 50 μM or 100 μM peptide, 24 hours, FIG. 2, FIG. 3B. On the procedure:
(§7) In this example, the aim was to confirm the effect of the peptide according to an example on improving endogenous skin aging, including improvement of wrinkles and enhancement of elasticity, etc., by evaluating the expression levels of collagen type 1 (Col1a1), fibronectin, or elastin, which are known components of the dermis.
(§8) Specifically, NIH3T3 cells were seeded in a 6-well plate at a density of 3×10^5 cells/well and cultured for 24 hours. The cells were then washed once with serum-free DMEM media, and the culture medium was replaced with serum-free DMEM media. Thereafter, 50 μM or 100 μM of the peptide consisting of the amino acid sequence of SEQ ID NO: 1 was dispensed into the medium, and cultured in a CO2 incubator at 37° C. for 24 hours. The culture was then washed twice with PBS, and RNA was isolated from the culture using easy blue (iNtRON, Korea). Using an RT kit (Enzynomics, Korea), 1 μg of the isolated RNA was reverse transcribed to synthesize the respective cDNA. Polymerase chain reaction (PCR) was then performed using the cDNAs and primers Col1a1, fibronectin, and elastin. Meanwhile, the untreated group was used as the control group, and the group to which TGF-β1 was added (TGF-β1) was used as the positive control group, the nucleotide sequences of the primers used in this example are shown in Table 2 below.

Assay [6] deals with elastin. The description is as above. It is filed as cell-based, mouse. Conditions: 50 μM or 100 μM peptide, 24 hours, FIG. 2, FIG. 3C. On the procedure: as §7, §8
Assay [7] deals with collagen type 1 (Col1a1). The assay is described as above. It is filed as cell-based, mouse. Conditions: 50 μM or 100 μM peptide, 24 hours, FIG. 2, FIG. 3A. On the procedure:
as §7, §8

In assay [8] the test system is HaCaT cells. Put plainly: Level of reactive oxygen species in ultraviolet-irradiated skin cells (DCF-DA, flow cytometry). The format is cell-based, human. Conditions: 15 m J/cm2 ultraviolet rays, 50 μM or 100 μM peptide, 24 hours, FIG. 7B. On the procedure: (§9) In this example, the aim was to confirm the effect of the peptide according to an embodiment on the antioxidant effect of skin cells induced by ultraviolet rays, by evaluating the level of reactive oxygen species in skin cells increased by ultraviolet irradiation.
(§10) Specifically, NIH3T3 cells or HaCaT cells were seeded in a 6-well plate at a density of 5×10^5 cells/well and cultured for 24 hours. The cells were then washed once with serum-free DMEM media, the culture medium was replaced with serum-free DMEM media, and 50 μM or 100 μM of the peptide consisting of the amino acid sequence of SEQ ID NO: 1 was dispensed to the culture medium. The culture medium dispensed with the peptide was cultured in a CO2 incubator at 37° C. for 1 hour, transferred to an e-tube, mixed with 100 μl of PBS, and dispensed into a well plate. Afterwards, using a UV irradiator (VILBER LOURMAT, France), 6 J/cm2 ultraviolet rays were irradiated to NIH3T3 cells, and 15 m J/cm2 ultraviolet rays were irradiated to HaCaT cells. The PBS in the well plate was then removed, 900 μL of the culture medium in which the peptides were dispensed was added, and the plate was cultured in a CO2 incubator at 37° C. for 24 hours. […] After washing the centrifuged cells with PBS, FL1 fluorescence values were measured through flow cytometry (FACS, BD, USA). […]
(In general: In flow cytometry, cells or beads pass a laser one at a time.)

Assay [9] deals with NIH3T3 cells. The assay is described as follows: Survival rate of skin cells after apoptosis induced by ultraviolet irradiation (SRB). It is filed as cell-based, mouse. Conditions: 6 J/cm^2 ultraviolet rays, 50 μM or 100 μM peptide, 72 hours, FIG. 6A. On the procedure:
as §1, §2

Assay [10] deals with HaCaT cells. The assay is described as follows: Proliferation of skin cells (SRB staining, survival rate). It is filed as cell-based, human. The following applies: 50 μM or 100 μM peptide, 72 hours, serum-free DMEM, FIG. 1B. On the procedure: as §3, §4
(In general: Sulforhodamine B stains cellular protein and so reports cell mass.)

Assay [11] relates to NIH3T3 cells. The assay is described as follows: Level of reactive oxygen species in ultraviolet-irradiated skin cells (DCF-DA, flow cytometry). The format is cell-based, mouse. Conditions: 6 J/cm2 ultraviolet rays, 50 μM or 100 μM peptide, 24 hours, FIG. 7A. The protocol: as §9, §10

On to DGFND (Peptide 1) [SEQ ID NO: 1], for which the “cell survival rate of keratinocytes reduced by ultraviolet irradiation” value in [1] is “restored”. The proliferation of fibroblasts result in assay [2] is on record as “promoted”. Besides, in [3], the “expression of SIRT-1” value is “increased”. Besides, the “expression of AQP3” value in assay [4] is given as “increased”. In addition, in assay [5], the expression of fibronectin entry is on record as “increased”. In [6], the expression of elastin entry was “increased”. The “expression of Col1a1” value in [7] is on record as “increased”. Further, the “level of reactive oxygen species in keratinocytes increased by ultraviolet irradiation” value in assay [8] is on record as “reduced”. Besides, the “cell survival rate of fibroblasts reduced by ultraviolet irradiation” value in assay [9] is “restored”. Further, in assay [10], the proliferation of keratinocytes entry is on record as “promoted”. Further, in assay [11], the “level of reactive oxygen species in fibroblasts increased by ultraviolet irradiation” value is reported as “reduced”.
